Experimental data from patent US6884772B1, “Depilatories and agents for external use” (Kao Corporation, priority 1999, dated 2005).
Where no end group is shown, it is not given here.

Legend:
[1] = test system: dorsal parts of guinea pigs; experiment: Growth-phase hair follicle inhibitory effects (number of hair shafts grown per unit area); type: in vivo, guinea pig; details: 1 μg each, intracutaneous, 50 μL/site, fifth day after the administration (FIG. 1)
Procedure: Solutions (1 μg, each) of endothelin-1, endothelin-2 and endotherin-3 in aliquots of phosphate buffer solution (PBS), which contained 0.1% of bovine serum albumin (BSA), were intracutaneously administered (at 50 μL/site) to the dorsal parts of guinea pigs, respectively, from which hair had been cut off by a hair clipper. Three days after the administration, hair was again cut off by a hair clipper from the administered sites. Two days after the cutting, the numbers of hair shafts grown per unit area at the administered sites were counted.

[2] = test system: dorsal part of a guinea pig; experiment: Depilation inducing effects of endothelin (intracutaneous administration); type: in vivo; details: 0.3 μg in 0.1% BSA/PBS, 50 μL/site, 10 days after the administration
Procedure: A solution of endothelin-1 (0.3 μg) in phosphate buffer solution (PBS), which contained 0.1% of bovine serum albumin (BSA), was intracutaneously administered (at 50 μL/site) to the dorsal part of a guinea pig.

[3] = test system: growth-phase hair follicle; experiment: Structural changes of hair follicle structure (hematoxylin-eosin staining of dorsal skin); type: in vivo, guinea pig; details: 0.3 μg intracutaneous
Procedure: A solution of endothelin-1 (0.3 μg) in phosphate buffer solution (PBS), which contained 1.1% of bovine serum albumin (BSA), was intracutaneously administered (at 50 μL/site) to the dorsal part of a guinea pig. After that, samples were collected day after day from the administered dorsal skin, and tissue samples were prepared by hematoxylin-eosin staining.

[4] = test system: hair follicle organs in growth phase from a human scalp tissue; experiment: Growth inhibitory effects on organ-cultured hair follicles; type: cell-based
Procedure: From a human scalp tissue, hair follicle organs in growth phase were surgically isolated under a stereomicroscope. Following a conventional procedure [Philpott M.P., et al., J. Cell Sci., 97, 463-471 (1990), the isolated hair follicles were subjected to organ culture. Described specifically, endothelin-1 was added to William's E medium which contained L-glutamine (2mM), hydrocortisone (10ng/mL), insulin ([…]) sodium selenite (10 ng/mL) and transferrin (10 μg/mL).

| Molecule | Number of hair shafts grown per unit area at the administered sites [1] | Hair shaft falling-off and formation of depilation spot at the administered site [2] | Hair follicle histology ([3]; 1st day after the administration (FIG. 2)) | Hair follicle histology ([3]; 3rd day after the administration (FIG. 2)) | Percent regression of growth-phase hair follicles ([4]; 10 ng/mL, Day 1 of incubation) [%] | Percent regression of growth-phase hair follicles ([4]; 10 ng/mL, Day 2 of incubation) [%] | Percent regression of growth-phase hair follicles ([4]; 100 ng/mL, Day 1 of incubation) [%] | Percent regression of growth-phase hair follicles ([4]; 100 ng/mL, Day 2 of incubation) [%] | Grown hair follicle lengths (hair growth inhibition) ([4]; day 4 of incubation and the subsequent days, compared with control group without endothelin-1 (FIG. 3)) | Structural change of incubated growth-phase hair follicles ([4]; during the incubation period (FIG. 4)) |
| --- | --- | --- | --- | --- | --- | --- | --- | --- | --- | --- |
| endothelin-2 (CSCSSWLDKECVYFCHLDIIW; ends and bridges not checked; cysteine pairing not given here; UniProt P20800 49-69, looked up) [peptide composed of 21 amino acid residues, isoform of endothelin] | significant (p<0.01) decrease in the number of hair shafts | – | – | – | – | – | – | – | – | – |
| CC[C@H](C)[C@H](NC(=O)[C@H](CC(=O)O)NC(=O)[C@H](CC(C)C)NC(=O)[C@H](Cc1c[nH]cn1)NC(=O)[C@@H]1CSSC[C@H](N)C(=O)N[C@@H](CO)C(=O)N[C@H]2CSSC[C@H](NC(=O)[C@H](CCC(=O)O)NC(=O)[C@H](CCCCN)NC(=O)[C@H](CC(=O)O)NC(=O)[C@H](CCSC)NC(=O)[C@H](CC(C)C)NC(=O)[C@H](CO)NC(=O)[C@H](CO)NC2=O)C(=O)N[C@@H](C(C)C)C(=O)N[C@@H](Cc2ccc(O)cc2)C(=O)N[C@@H](Cc2ccccc2)C(=O)N1)C(=O)N[C@H](C(=O)N[C@@H](Cc1c[nH]c2ccccc12)C(=O)O)[C@@H](C)CC [Endothelin-1, endothelin-1] | significant (p<0.01) decrease in the number of hair shafts | hair shaft falling-off and formation of a marked depilation spot were observed | regressed image of a growth-phase hair follicle was observed | image of a follicular tissue in transition phase was presented | 0.0 | 0.0 | 0.0 | 0.0 | significant hair growth inhibitory effects were observed | structural change of the endothelin-treated, growth-phase hair follicles into those similar to resting-phase hair follicles was observed |
| endothelin-3 (CTCFTYKDKECVYYCHLDIIW; ends and bridges not checked; cysteine pairing not given here; UniProt P14138 97-117, looked up) [endotherin-3, peptide composed of 21 amino acid residues, isoform of endothelin] | significant (p<0.01) decrease in the number of hair shafts | – | – | – | – | – | – | – | – | – |
